Data from patent US20250011351A1, “[…] O-ACETYLPSILOCIN, SALTS AND SOLID STATE FORMS THEREOF” (Terran Biosciences Inc., priority 2021, published 2025).
Entries after “also recorded” stand apart in the source; their conditions may differ.

Columns and labels:
5-HT2A receptors = target: T1, 5-HT2A receptors (Mus musculus, UniProt P35363); assay: Psilocybin-induced head-twitch response in mice, antagonist given i.v. 7 min after psilocybin; type: in vivo, C57BL/6J mice; details: for effect on psilocybin-induced head-twitch response: cumulative head twitches until 40 min, groups of 3 mice; for effect on psilocybin-induced head twitch, summary of Examples 13-21: antagonist administered after psilocybin, compared to vehicle-treated mice, dose not restated; for Result (suppression of psilocybin-induced head twitch): 5HT2A antagonist i.v. at T=7 min
T1 construct: from tissue; host or cells: whole living C57BL/6J mice (in vivo behavioural assay)
Source text: The head-shake response is elicited by a wide variety of known hallucinogens such as LSD, psilocybin, psilocin, N,N-dimethyltryptamine (DMT), and mescaline as well as serotonin-releasing agents and direct 5-HT2 agonists. […] Later studies have confirmed 5-HT2A receptors are the primary, direct mediators of the response and that the headshake response in rats is essentially the same as head-twitches in mice, at least in regards to similarity in appearance and 5-HT2A receptor dependence.
Male C57BL/6J mice (approximately 25 g) were group housed. Animals were maintained under a 12 h light/dark cycle, at 23° C. with humidity controlled.
(§1) At T=−60 min, C57BL/6J mice were individually housed into transparent observation cages with bedding removed and left to habituate. At T=−3 min, mice were placed into heated cages at 40° C. At T=0 h, groups of 3 mice were dosed intraperitoneally with psilocybin (2 mg/kg). Following dosing, mice were replaced into the heated cages and head-twitch responses continuously scored for 7 min. After 7 min, mice were intravenously dosed via the lateral tail vein with either vehicle 1 (saline) or volinanserin 1 mg/kg in 5 mL/kg dosing volumes. Mice were replaced into the observation cages and head twitch behavior were monitored until 40 min after agonist dosing. Cumulative head-twitches were measured every 2 minutes until 40 minutes after agonist dosing.
as §1, with “min. […]” for “min. After 7 min, mice were intravenously dosed via the lateral tail vein with either vehicle 1 (saline) or volinanserin 1 mg/kg in 5 mL/kg dosing volumes.”, “behavior was” for “behavior were”, “Cumulative head-twitch behavior was” for “Cumulative head-twitches were”
as §1, with “min. […]” for “min. After 7 min, mice were intravenously dosed via the lateral tail vein with either vehicle 1 (saline) or volinanserin 1 mg/kg in 5 mL/kg dosing volumes.”, “behavior was” for “behavior were”, “Cumulative head-twitch behavior was” for “Cumulative head-twitches were”
as §1, with “min. […]” for “min. After 7 min, mice were intravenously dosed via the lateral tail vein with either vehicle 1 (saline) or volinanserin 1 mg/kg in 5 mL/kg dosing volumes.”, “behavior was” for “behavior were”, “Cumulative head-twitch behavior was” for “Cumulative head-twitches were”
as §1, with “min. […]” for “min. After 7 min, mice were intravenously dosed via the lateral tail vein with either vehicle 1 (saline) or volinanserin 1 mg/kg in 5 mL/kg dosing volumes.”, “behavior was” for “behavior were”, “Cumulative head-twitch behavior was” for “Cumulative head-twitches were”
At T=−60 min, C57BL/6J mice were individually housed into transparent observation cages with bedding removed and left to habituate.

[1] = Dynamic vapor sorption (DVS) analysis with XRPD of the post-DVS specimen; type: physicochemical; details: for hygroscopicity (in words): DVS at 25° C., RH range given with the value; for overall water uptake: range between 5-95% RH; for solid form of the post-DVS specimen: XRPD after the DVS experiment (5 to 95% RH and back); for hydrate formation: hysteresis of the DVS curve
Protocol: (§2) DVS analysis was carried out using a TA Instruments Q5000 Dynamic Vapor Sorption analyzer. The instrument was calibrated with standard weights and a sodium bromide standard for humidity. Approximately 10-25 mg of sample was loaded into a metal-coated quartz pan for analysis. The sample was analyzed at 25° C. with a maximum equilibration time of one hour in 10% relative humidity (RH) steps from 5 to 95% RH (adsorption cycle) and from 95 to 5% RH (desorption cycle). The movement from one step to the next occurred either after satisfying the equilibrium criterion of 0.01% weight change or, if the equilibrium criterion was not met, after one hour. The percent weight change values were calculated using Microsoft Excel®.
as §2, with “Dynamic Vapor Sorption (DVS)” for “DVS”, “is” for “was”, “is” for “were”, “Excel.” for “Excel®.”

[2] = Estimated solubility by adding solvent in aliquots to weighed solid, dissolution judged by visual inspection; details: for Solubility / Estimated Solubilities: room temperature
[3] = antagonist 1 mg/kg i.v. 7 min after psilocybin 2 mg/kg i.p.
[4] = psilocybin 2 mg/kg i.p., head twitches scored to 40 min
[5] = antagonist 4 mg/kg i.v. 7 min after psilocybin 2 mg/kg i.p.

T1 sequence (P35363 whole entry): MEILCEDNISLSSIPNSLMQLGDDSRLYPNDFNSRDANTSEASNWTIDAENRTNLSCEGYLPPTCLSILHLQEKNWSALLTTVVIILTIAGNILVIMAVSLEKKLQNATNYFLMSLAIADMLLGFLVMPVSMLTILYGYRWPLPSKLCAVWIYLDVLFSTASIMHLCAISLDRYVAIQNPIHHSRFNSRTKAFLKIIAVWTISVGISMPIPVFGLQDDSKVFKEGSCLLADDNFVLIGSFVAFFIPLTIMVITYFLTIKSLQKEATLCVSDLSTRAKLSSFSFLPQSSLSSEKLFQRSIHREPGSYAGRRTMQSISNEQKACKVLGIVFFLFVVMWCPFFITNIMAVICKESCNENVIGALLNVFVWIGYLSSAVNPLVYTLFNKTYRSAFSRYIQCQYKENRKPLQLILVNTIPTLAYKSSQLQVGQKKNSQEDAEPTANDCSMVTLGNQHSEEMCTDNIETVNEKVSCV

Molecule: COc1cccc([C@H](O)C2CCN(CCc3ccc(F)cc3)CC2)c1OC [volinanserin]
- effect on psilocybin-induced head-twitch response (5-HT2A receptors; [3]): completely suppressed
- effect on psilocybin-induced head twitch, summary of Examples 13-21 (5-HT2A receptors): full ending
- Result (suppression of psilocybin-induced head twitch) (5-HT2A receptors; [4]): Full suppression of head twitch

Molecule: O=c1[nH]c2ccccc2n1CCN1CCN(c2cccc(C(F)(F)F)c2)CC1 [flibanserin]
- effect on psilocybin-induced head-twitch response (5-HT2A receptors; [3]): partially suppressed
- effect on psilocybin-induced head-twitch response (5-HT2A receptors; [5]): partially suppressed
- effect on psilocybin-induced head twitch, summary of Examples 13-21 (5-HT2A receptors): partial suppression
- Result (suppression of psilocybin-induced head twitch) (5-HT2A receptors; [4]): Partial suppression of head twitch

Molecule: CC(=O)Oc1cccc2[nH]cc(CCN(C)C)c12.O=C(O)/C=C/C(=O)O [O-acetylpsilocin fumarate Form A, O-acetylpsilocin fumarate]
- hygroscopicity (in words) [1]: non-hygroscopic
- overall water uptake ([1]; DVS): approx. 0.1%
- Solubility ([2]; 1,4-dioxane): <1000 µg/mL
- Solubility ([2]; 2-propanol (2-PrOH)): 1000 µg/mL
- Solubility ([2]; 50:50 MeOH:water): >33000 µg/mL
- Solubility ([2]; 50:50 THF:water): >55000 µg/mL
- Solubility ([2]; 70:30 ACN:water): >75000 µg/mL
- Solubility ([2]; 70:30 acetone:water): >51000 µg/mL
- Solubility ([2]; 95:5 1,4-dioxane:water): 3000 µg/mL
- Solubility ([2]; 95:5 ACN:water): 12000 µg/mL
- Solubility ([2]; 95:5 EtOH:water): 9000 µg/mL
- Solubility ([2]; 95:5 IPA:water): 4000 µg/mL
- Solubility ([2]; 95:5 MeOH:water): >26000 µg/mL
- Solubility ([2]; 95:5 THF:water): >17000 µg/mL
- Solubility ([2]; 95:5 acetone:water): 10000 µg/mL
- Solubility ([2]; acetone): <1000 µg/mL
- Solubility ([2]; acetonitrile (ACN)): <1000 µg/mL
- Solubility ([2]; dichloromethane (DCM)): <1000 µg/mL
- Solubility ([2]; ethanol (EtOH)): 2000 µg/mL
- Solubility ([2]; ethyl acetate (EtOAc)): <1000 µg/mL
- Solubility ([2]; hexanes): <1000 µg/mL
- Solubility ([2]; methanol (MeOH)): 2000 µg/mL
- Solubility ([2]; tetrahydrofuran (THF)): 1000 µg/mL
- Solubility ([2]; toluene): <1000 µg/mL
- Solubility ([2]; water): 11000 µg/mL

Molecule: CC(=O)Oc1cccc2[nH]cc(CCN(C)C)c12.O=C(O)CC(O)C(=O)O [Malate Form B]
- Water uptake ([1]; 5-85% RH): 0.8%, 5-85% RH;
- Water uptake (25-65% RH) % [1]: ~0.3%
- Water uptake ([1]; above 85% RH): 4.5% above 85%

Molecule: CC(=O)Oc1cccc2[nH]cc(CCN(C)C)c12 [O-Acetyl Psilocin Freebase, O-Acetyl Psilocin]
- Estimated Solubilities ([2]; 1,4-dioxane): >62
- Estimated Solubilities ([2]; 2-methyltetrahydrofuran 2-Me(THF)): >50
- Estimated Solubilities ([2]; 2-propanol (2-PrOH)): >32
- Estimated Solubilities ([2]; Methyl ethyl ketone (MEK)): >51
- Estimated Solubilities ([2]; Methyl tert-butyl ether (MTBE)): >23
- Estimated Solubilities ([2]; acetone): >59
- Estimated Solubilities ([2]; acetonitrile (ACN)): >67
- Estimated Solubilities ([2]; ethanol (EtOH)): >62
- Estimated Solubilities ([2]; hexanes): <1
- Estimated Solubilities ([2]; methanol (MeOH)): >62
- Estimated Solubilities ([2]; toluene): >59
- Estimated Solubilities ([2]; water): <1

Molecule: CC(=O)Oc1cccc2[nH]cc(CCN(C)C)c12.CS(=O)(=O)O [mesylate salt, Form A, O-Acetyl Psilocin Mesylate]
- hygroscopicity (in words) [1]: non-hygroscopic in the range from 5-55% RH; also recorded: highly hygroscopic material above 55% RH
- Water uptake ([1]; DVS, above 55% RH): 40%
- solid form of the post-DVS specimen [1]: a liquid

Molecule: CC(=O)Oc1cccc2[nH]cc(CCN(C)C)c12.O=C(O)C(O)C(O)C(=O)O [L-tartrate, Form A]
- RH above which hygroscopic (DVS) ([1]; DVS): > 85 % RH
- RH range in which non-hygroscopic (DVS) ([1]; DVS): 5-85 % RH
- hydrate formation upon DVS ([1]; DVS, high RH): resulting in hydrate
- water uptake, DVS ([1]; above 85% RH): ~6%

Molecule: N#Cc1c[nH]c2c(C(=O)N3CCN(CCc4ccc(F)cc4)CC3)cccc12 [pruvanserin]
- effect on psilocybin-induced head-twitch response (5-HT2A receptors; [3]): completely suppressed
- effect on psilocybin-induced head twitch, summary of Examples 13-21 (5-HT2A receptors): full ending
- Result (suppression of psilocybin-induced head twitch) (5-HT2A receptors; [4]): Full suppression of head twitch

Molecule: CC(=O)Oc1cccc2[nH]cc(CCN(C)C)c12.O=C(O)C(O)C(O)C(=O)O [L-tartrate salt, Form A, O-Acetyl Psilocin Tartrate]
- hygroscopicity (in words) [1]: non-hygroscopic in the range from 5-85% RH; also recorded: hygroscopic above 85% RH
- Water uptake ([1]; DVS, above 85% RH): approx. 6%
- hydrate formation ([1]; DVS, above 85% RH): consistent with hydrate formation
- hydrate formation ([1]; DVS, above 85% RH, listed as Tartrate A): possible hydrate formation
- solid form of the post-DVS specimen [1]: consistent with Form A by XRPD analysis and exhibited additional diffraction peaks

Molecule: CC(=O)Oc1cccc2[nH]cc(CCN(C)C)c12.O=C(O)C[C@H](O)C(=O)O [L-malate salt, Form B, O-Acetyl Psilocin Malate]
- hygroscopicity (in words) [1]: non-hygroscopic in the range between 5-85% RH; also recorded: hygroscopic above 850% RH
- Water uptake ([1]; DVS, above 85% RH): approx. 4.500%
- hydrate formation ([1]; DVS, above 85% RH): no hydrate formation occurred
- hydrate formation ([1]; DVS, above 85% RH, listed as Malate B): possible hydrate formation
- solid form of the post-DVS specimen [1]: consistent with Form B

Molecule: COc1ccc(NC(=O)Nc2ccc(F)cc2F)cc1-c1c(Br)cnn1C [nelotanserin]
- effect on psilocybin-induced head-twitch response (5-HT2A receptors; [3]): partially suppressed
- effect on psilocybin-induced head-twitch response (5-HT2A receptors; [5]): completely suppressed; also recorded: completed suppressed
- effect on psilocybin-induced head twitch, summary of Examples 13-21 (5-HT2A receptors): partial suppression
- Result (suppression of psilocybin-induced head twitch) (5-HT2A receptors; [4]): Partial suppression of head twitch,
- Result (suppression of psilocybin-induced head twitch) at high dose (5-HT2A receptors; psilocybin 2 mg/kg i.p., antagonist at high dose (4 mg/kg) i.v. at T=7 min, head twitches scored to 40 min): full suppression at high dose

Molecule: O=C(c1ccc(F)cc1)C1CCN(CCn2c(=O)[nH]c3ccccc3c2=O)CC1 [ketanserin]
- effect on psilocybin-induced head-twitch response (5-HT2A receptors; antagonist 2 mg/kg i.v. 7 min after psilocybin 2 mg/kg i.p.): completely suppressed

Molecule: Cc1nc2sccn2c(=O)c1CCN1CCC(=C(c2ccc(F)cc2)c2ccc(F)cc2)CC1 [ritanserin]
- effect on psilocybin-induced head-twitch response (5-HT2A receptors; [3]): completely suppressed
- effect on psilocybin-induced head twitch, summary of Examples 13-21 (5-HT2A receptors): full ending
- Result (suppression of psilocybin-induced head twitch) (5-HT2A receptors; [4]): Full suppression of head twitch

Molecule: CN(C)CCc1c[nH]c2cccc(OP(=O)(O)O)c12 [psilocybin]
- hygroscopicity (in words) [1]: hygroscopic between 75-95% RH; also recorded: Hygroscopic above 75% RH:
- solid form of the post-DVS specimen [1]: converted to a hydrate Form B; also recorded: a hydrated form of psilocybin resulted from water sorption between 75-95% RH; also recorded: Crystalline Form B (hydrate)

Molecule: CC(=O)Oc1cccc2[nH]cc(CCN(C)C)c12.O=C(O)/C=C\C(=O)O [maleate salt, Form A, O-acetyl psilocin maleate]
- hygroscopicity (in words) [1]: non-hygroscopic
- hygroscopicity (in words) ([1]; listed as maleate salt): minimal water sorption over the RH range
- overall water uptake ([1]; DVS): approx. 0.8%
- solid form of the post-DVS specimen [1]: consistent with Form A

Molecule: Maleate
- Water uptake ([1]; 5-95% RH): ~0.8, 5-95%
- Water uptake (25-65% RH) % [1]: ~0.3%
- Water solubility ([2]; water): >50000 µg/mL

Molecule: CC(=O)Oc1cccc2[nH]cc(CCN(C)C)c12.O=C(O)C(O)C(O)C(=O)O [Tartrate Form A]
- Water uptake (25-65% RH) % [1]: 0.1%
- Water uptake ([1]; 85-95% RH): 5-6% 85-95% RH
- RH at which likely hydrate formation is shown ([1]; listed as 'Other forms'): at 95% RH
